Values of other authors as cited in Sander's compilation of Henry's law constants.
Several values for one entry are separate records, joined by “and”; a condition that tells them apart may be missing. Equal values may be shown once. Blank lines part the entries; values can stand above or below the compound they belong to.

Assay: Henry solubility constant Hcp at 298.15 K (mol/(m3 Pa))
Conditions: cited value
[1] = reference: Burkholder et al. (2015)
[2] = reference: Burkholder et al. (2019)
[3] = reference: Sander et al. (2006)
[4] = reference: Sander et al. (2011)
[5] = reference: Barcelo and Hennion (1997)
[6] = reference: Liss and Slater (1974)
[7] = reference: Fogg and Sangster (2003)
[8] = reference: Gaffney and Senum (1984)

SMILES: CS [methanethiol]
Henry solubility constant Hcp [1]: 0.0038 | Henry solubility constant Hcp [2]: 0.0038 | Henry solubility constant Hcp (reference: Goldstein (1982)): 0.0026 | Henry solubility constant Hcp [3]: 0.0038 | Henry solubility constant Hcp [4]: 0.0038

Henry solubility constant Hcp [5]: 82
SMILES: COc1c(Cl)ccc(Cl)c1C(=O)O [dicamba]

Henry solubility constant Hcp (reference: Brockbank (2013)): 0.026
SMILES: CCCOC(=O)CC [propyl propanoate]

Henry solubility constant Hcp (reference: Brockbank (2013)): 0.86 | Henry solubility constant Hcp (reference: Dohnal et al. (2006)): 1
SMILES: CCCCCO [1-pentanol]

SMILES: [Br][Hg][Br] [mercury dibromide]
Henry solubility constant Hcp (reference: Kanefke (2008)): 960

SMILES: Oc1ccccc1Cl [2-hydroxychlorobenzene]
Henry solubility constant Hcp (reference: Goldstein (1982)): 1.2 | Henry solubility constant Hcp (reference: Howard (1989)): 18

Henry solubility constant Hcp (reference: Brockbank (2013)): 0.012
SMILES: CC(=O)OC(C)(C)C [1,1-dimethylethyl ethanoate]

Henry solubility constant Hcp (reference: Brockbank (2013)): 0.22
SMILES: CCCCCCCCN [1-octanamine]

SMILES: CCCOC(=O)c1ccccc1C(=O)OCCC [dipropyl phthalate]
Henry solubility constant Hcp (reference: Brockbank (2013)): 22

Henry solubility constant Hcp (reference: Brockbank (2013)): 0.00091
SMILES: CCCc1ccccc1 [propylbenzene]

SMILES: CCOP(=S)(OCC)SCSCC [phorate]
Henry solubility constant Hcp [5]: 0.015

Henry solubility constant Hcp (reference: Brockbank (2013)): 4.4e-06
SMILES: CCCCCCC [heptane]

Henry solubility constant Hcp (reference: Brockbank (2013)): 0.019
SMILES: c1ccc(Oc2ccccc2)cc1 [diphenyl ether]

SMILES: OC[C@@H](O)[C@@H](O)CO [2(R),3(S)-1,2,3,4-butanetetrol]
Henry solubility constant Hcp [1]: 1.1e+10 | Henry solubility constant Hcp [2]: 1.1e+10

SMILES: Cc1cccc(C)c1 [1,3-dimethylbenzene]
Henry solubility constant Hcp (reference: Brockbank (2013)): 0.0015

SMILES: FC(F)F [trifluoromethane]
Henry solubility constant Hcp [1]: 0.00013 | Henry solubility constant Hcp [2]: 0.00013 | Henry solubility constant Hcp [4]: 0.00013

Henry solubility constant Hcp (reference: Brockbank (2013)): 3.1e-06
SMILES: CC(C)CCC(C)C [2,5-dimethylhexane]

SMILES: CCCCC#N [pentanenitrile]
Henry solubility constant Hcp (reference: Brockbank (2013)): 0.16 | Henry solubility constant Hcp (reference: Plyasunov et al. (2006)): 0.14

SMILES: ClNCl [dichloramine]
Henry solubility constant Hcp [1]: 0.29 | Henry solubility constant Hcp [2]: 0.29 | Henry solubility constant Hcp [3]: 0.29 | Henry solubility constant Hcp [4]: 0.29

SMILES: CC(C)N(C(=O)CCl)c1ccccc1 [propachlor]
Henry solubility constant Hcp [5]: 0.9

SMILES: OCC(F)(F)C(F)(F)F [2,2,3,3,3-pentafluoro-1-propanol]
Henry solubility constant Hcp [1]: 0.14 | Henry solubility constant Hcp [2]: 0.14 | Henry solubility constant Hcp [4]: 0.14

SMILES: Nc1ccccc1Cl [1-amino-2-chlorobenzene]
Henry solubility constant Hcp (reference: Brockbank (2013)): 1.9

SMILES: Cc1cccc([N+](=O)[O-])c1 [3-nitrotoluene]
Henry solubility constant Hcp (reference: Brockbank (2013)): 0.27 | Henry solubility constant Hcp (reference: Goldstein (1982)): 0.14

SMILES: CNC(=O)Oc1cc(C)c(SC)c(C)c1 [methiocarb]
Henry solubility constant Hcp (reference: MacBean (2012b)): 8400

SMILES: CI [iodomethane]
Henry solubility constant Hcp (reference: Brockbank (2013)): 0.002 | Henry solubility constant Hcp [1]: 0.002 | Henry solubility constant Hcp [2]: 0.002 | Henry solubility constant Hcp [6]: 0.0017 | Henry solubility constant Hcp [3]: 0.002 | Henry solubility constant Hcp [4]: 0.002

SMILES: COc1ccc(NC(=O)N(C)C)cc1Cl [metoxuron]
Henry solubility constant Hcp [5]: 6.6

Henry solubility constant Hcp (reference: Brockbank (2013)): 0.34
SMILES: CCCCCCCCO [1-octanol]

Henry solubility constant Hcp (reference: Brockbank (2013)): 3e-06
SMILES: C=CCCCCCCCCCCCC [1-tetradecene]

Henry solubility constant Hcp (reference: Brockbank (2013)): 0.0029
SMILES: Cc1ccc(C)c(C)c1C [1,2,3,4-tetramethylbenzene]

SMILES: CC(C)(C)c1cc([N+](=O)[O-])cc([N+](=O)[O-])c1O [dinoterb]
Henry solubility constant Hcp [5]: 1.7

SMILES: CC(=O)C(=O)O [2-oxopropanoic acid]
Henry solubility constant Hcp [1]: 3100 | Henry solubility constant Hcp [2]: 3100 | Henry solubility constant Hcp [3]: 3100 | Henry solubility constant Hcp [4]: 3100

Henry solubility constant Hcp (reference: Deno and Berkheimer (1960)): 9.2e-05
SMILES: C=CC [propene]

Henry solubility constant Hcp (reference: Brockbank (2013)): 8e-06
SMILES: CC(C)C(C)C [2,3-dimethylbutane]

Henry solubility constant Hcp (reference: Brockbank (2013)): 0.011
SMILES: CCCC(=O)OCCC(C)C [3-methylbutyl butanoate]

SMILES: CNC(=O)ON=C(C)SC [methomyl]
Henry solubility constant Hcp [5]: 150

Henry solubility constant Hcp (reference: Brockbank (2013)): 2e-05
SMILES: C=CCCCCC [1-heptene]

Henry solubility constant Hcp (reference: Brockbank (2013)): 0.00026
SMILES: C#CCCCC [1-hexyne]

SMILES: Clc1cc(Cl)c(-c2cc(Cl)c(Cl)cc2Cl)cc1Cl [2,2',4,4',5,5'-hexachlorobiphenyl]
Henry solubility constant Hcp (reference: Murphy et al. (1983b)): 0.028

Henry solubility constant Hcp (reference: Brockbank (2013)): 1.6
SMILES: Cc1ccncc1 [4-methylpyridine]

SMILES: O=C(NC(=O)c1c(F)cccc1F)Nc1ccc(Cl)cc1 [diflubenzuron]
Henry solubility constant Hcp [5]: 21

SMILES: COP(=S)(OC)Oc1ccc([N+](=O)[O-])c(C)c1 [fenitrothion]
Henry solubility constant Hcp [5]: 2.7

SMILES: COO [methyl hydroperoxide]
Henry solubility constant Hcp (reference: Brockbank (2013)): 3 | Henry solubility constant Hcp [1]: 3 | Henry solubility constant Hcp [2]: 3 | Henry solubility constant Hcp [3]: 3 | Henry solubility constant Hcp [4]: 3

SMILES: C=CCSC [allyl methyl sulfide]
Henry solubility constant Hcp [1]: 0.0042 | Henry solubility constant Hcp [2]: 0.0042

SMILES: Clc1cccc(Cl)c1 [1,3-dichlorobenzene]
Henry solubility constant Hcp (reference: Brockbank (2013)): 0.0031 | Henry solubility constant Hcp [7]: 0.0034 | Henry solubility constant Hcp (reference: Goldstein (1982)): 0.0039

Henry solubility constant Hcp (reference: Brockbank (2013)): 0.018
SMILES: CCCOC(=O)CCC [propyl butanoate]

Henry solubility constant Hcp [7]: 0.00024
SMILES: FC(F)OC(Cl)C(F)(F)F (stereo not drawn) [1-chloro-2,2,2-trifluoroethyl difluoromethyl ether]

Henry solubility constant Hcp (reference: Brockbank (2013)): 5.7e-06
SMILES: CCC(C)(C)C [2,2-dimethylbutane]

Henry solubility constant Hcp (reference: Brockbank (2013)): 0.04
SMILES: CCCCC(=O)CCCC [5-nonanone]

SMILES: Brc1cc(Br)c(Oc2cc(Br)c(Br)cc2Br)cc1Br [2,2',4,4',5,5'-hexabromodiphenyl ether]
Henry solubility constant Hcp (reference: Wania and Dugani (2003)): 2.9

SMILES: CCCI [1-iodopropane]
Henry solubility constant Hcp (reference: Brockbank (2013)): 0.0011

SMILES: II [iodine (molecular)]
Henry solubility constant Hcp (reference: Berdnikov and Bazhin (1970)): 0.031 | Henry solubility constant Hcp (reference: Palmer et al. (1985)): 0.03 | Henry solubility constant Hcp (reference: Thompson and Zafiriou (1983)): 0.011

SMILES: C=CC#N [2-propenenitrile]
Henry solubility constant Hcp (reference: Brockbank (2013)): 0.1 | Henry solubility constant Hcp (reference: Goldstein (1982)): 0.11 | Henry solubility constant Hcp (reference: Mackay et al. (1995)): 0.11

SMILES: C1=Cc2cccc3cccc1c23 [acenaphthylene]
Henry solubility constant Hcp (reference: Brockbank (2013)): 0.085 | Henry solubility constant Hcp [7]: 0.091

Henry solubility constant Hcp (reference: Brockbank (2013)): 7.6e-05
SMILES: CCCCCCCCCCc1ccccc1 [decylbenzene]

Henry solubility constant Hcp (reference: Brockbank (2013)): 0.026
SMILES: CC(=O)OCC(C)C [2-methylpropyl ethanoate]

SMILES: CCN(CC)c1ccccc1 [(diethylamino)-benzene]
Henry solubility constant Hcp (reference: Brockbank (2013)): 0.067

Henry solubility constant Hcp (reference: Brockbank (2013)): 1.3
SMILES: CC(=O)Oc1ccccc1 [phenyl ethanoate]

Henry solubility constant Hcp (reference: Brockbank (2013)): 0.76
SMILES: CCCCCCO [1-hexanol]

SMILES: O=Cc1ccccc1 [benzaldehyde]
Henry solubility constant Hcp (reference: Brockbank (2013)): 0.4 | Henry solubility constant Hcp [8]: 0.36

SMILES: CC(C)C [2-methylpropane]
Henry solubility constant Hcp [1]: 9.1e-06 | Henry solubility constant Hcp [2]: 9.1e-06 | Henry solubility constant Hcp (reference: Hayduk (1986)): 9.1e-06 | Henry solubility constant Hcp [3]: 9.1e-06 | Henry solubility constant Hcp [4]: 9.1e-06

Henry solubility constant Hcp (reference: Brockbank (2013)): 3100
SMILES: CN1CCCC1=O [N-methyl-2-pyrrolidone]

SMILES: CCNc1nc(NC(C)C)nc(SC)n1 [ametryn]
Henry solubility constant Hcp [5]: 82

SMILES: CC(Cl)CCl (stereo not drawn) [1,2-dichloropropane]
Henry solubility constant Hcp (reference: Brockbank (2013)): 0.0034 | Henry solubility constant Hcp [1]: 0.0034 | Henry solubility constant Hcp [2]: 0.0034 | Henry solubility constant Hcp (reference: Goldstein (1982)): 0.0034 | Henry solubility constant Hcp (reference: Horvath and Getzen (1999)): 0.0035

Henry solubility constant Hcp (reference: Brockbank (2013)): 0.00027
SMILES: CCCCCCCc1ccccc1 [heptylbenzene]

SMILES: ClC(Cl)(Cl)Cl [tetrachloromethane]
Henry solubility constant Hcp (reference: Brockbank (2013)): 0.00035 | Henry solubility constant Hcp [1]: 0.00036 | Henry solubility constant Hcp [2]: 0.00036 | Henry solubility constant Hcp (reference: Dilling (1977)): 0.00046 | Henry solubility constant Hcp (reference: Goldstein (1982)): 0.00033 | Henry solubility constant Hcp (reference: Harrison et al. (1993)): 0.00038 and 0.00021 | Henry solubility constant Hcp [6]: 0.00037 | Henry solubility constant Hcp [3]: 0.00034 | Henry solubility constant Hcp [4]: 0.00034

Henry solubility constant Hcp (reference: Brockbank (2013)): 0.21
SMILES: CCCCCCCC(C)O (stereo not drawn) [2-nonanol]

Henry solubility constant Hcp (reference: Mackay et al. (1992b)): 0.059
SMILES: c1ccc(CCc2ccccc2)cc1 [1,2-diphenylethane]

SMILES: ClCCCCl [1,3-dichloropropane]
Henry solubility constant Hcp (reference: Brockbank (2013)): 0.012 | Henry solubility constant Hcp [1]: 0.01 | Henry solubility constant Hcp [2]: 0.01

SMILES: ClC(Cl)C(Cl)(Cl)Cl [pentachloroethane]
Henry solubility constant Hcp (reference: Brockbank (2013)): 0.0042 | Henry solubility constant Hcp [2]: 0.0041

Henry solubility constant Hcp [5]: 1.1
SMILES: CCNC(=O)[C@@H](C)OC(=O)Nc1ccccc1 [carbetamide]

Henry solubility constant Hcp (reference: Brockbank (2013)): 0.081
SMILES: C1CCOCC1 [tetrahydropyran]

Henry solubility constant Hcp (reference: Brockbank (2013)): 0.82
SMILES: CC(C)CCO [3-methyl-1-butanol]

Henry solubility constant Hcp (reference: Brockbank (2013)): 15
SMILES: Cc1cc(C)cc(O)c1 [1-hydroxy-3,5-dimethylbenzene]

Henry solubility constant Hcp (reference: Brockbank (2013)): 0.3
SMILES: CC(C)(C)CO [2,2-dimethyl-1-propanol]

SMILES: C=COC(C)=O [ethenyl ethanoate]
Henry solubility constant Hcp (reference: Brockbank (2013)): 0.02 | Henry solubility constant Hcp [1]: 0.02 | Henry solubility constant Hcp [2]: 0.02 | Henry solubility constant Hcp (reference: Goldstein (1982)): 0.017

Henry solubility constant Hcp (reference: Brockbank (2013)): 2.6e-06
SMILES: CCCCC(C)CC (stereo not drawn) [3-methylheptane]

SMILES: Cc1ccccc1C [1,2-dimethylbenzene]
Henry solubility constant Hcp (reference: Brockbank (2013)): 0.002 | Henry solubility constant Hcp [7]: 0.0024

SMILES: CC(C)N1C(=O)c2ccccc2NS1(=O)=O [bentazone]
Henry solubility constant Hcp [5]: 130

Henry solubility constant Hcp (reference: Brockbank (2013)): 0.021 | Henry solubility constant Hcp [7]: 0.022 | Henry solubility constant Hcp (reference: Goldstein (1982)): 0.021 | Henry solubility constant Hcp (reference: McCarty (1980)): 0.027
SMILES: c1ccc2ccccc2c1 [naphthalene]

SMILES: O=[N+]([O-])c1cccc(O)c1 [3-nitrophenol]
Henry solubility constant Hcp [8]: 4900
